Test results reported in patent US20060051739A1, “Methods and composition for visualizing and interfering with chromosomal tethering of extrachromosomal molecules” (Salk Institute for Biological Studies, priority 2000, published 2006).

System: COLO320DM cells with lacO/lacR-GFP labelled DMs
Experiment: Microtubule inhibitor treatment of cells with lacO/lacR-GFP labelled DMs, immunofluorescence microscopy
Type: cell-based, human
Conditions: for appearance of microtubules (immunofluorescence): taxol 10 μM or vinblastine 10 μg/ml for 3 hours prior to harvesting, anti α-tubulin staining; for chromosome organization / association of DMs with chromosomes / peripheral localization of DMs on mitotic chromosomes: taxol 10 μM or vinblastine 10 μg/ml for 3 hours; for chromosome organization: DAPI counterstain; for association of DMs with chromosomes / peripheral localization of DMs on mitotic chromosomes: DMs visualized by lacR-GFP
Text: Visualizing DM-integrated and free EBV vectors by in vivo lacR-GFP staining: One of the established cell lines, containing DMs tagged with lacO repeat, was infected with lacR-GFP retrovirus. The infected cells were subcloned by limited dilution to obtain sublines in which DMs are more uniformly labelled with lacR-GFP. For time lapse imaging, the same cell line was infected with H2B-CFP and lacR-YFP viruses simultaneously, and the double-labelled cells were subcloned by limited dilution.
Immunofluorescence staining: Cells were harvested by gentle pipetting, attached to slide glasses by cytospin (500 rpm, 1 minute, Shandon, Pittsburgh, Pa.), and fixed with 3.7% formaldehyde for 10 minutes. When indicated, cells were treated with either taxol (10 μM paclitaxel, Sigma Chemical Co., St. Louis, Mo.) or vinblastine (10 μg/ml, Sigma) for 3 hours prior to harvesting them in order to disrupt microtubules. Slides were washed with PBS three times, and treated with blocking buffer (2.5% BSA, 0.2M glycine, 0.1% TritonX-100) for 30 minutes.
Primary and secondary antibodies were diluted in the blocking buffer. Primary antibodies were rabbit anti EBNA-1 serum K67-3 (1:1000, kindly provided by Dr. Jaap Middeldorp, Free University Hospital, Amsterdam, the Netherlands), human CREST autoantiserum hACA-M (for detecting centromeres, 1:2000 dilution) (Sullivan et al., 1994), and monoclonal anti α-tubulin (for detecting microtubules, 1:2000 dilution, Sigma). Following incubation for 60 minutes at room temperature, glass slides were washed three times with PBS. Secondary antibodies were Texas-Red conjugated anti-rabbit IgG (1:500, Jackson ImmunoResearch, West Grove, Pa.), Cy5 conjugated goat anti-human IgG (1:1000, Amersham, Piscataway, N.J.), and rhodamine conjugated anti mouse IgG (1:1000, Boehringer Mannheim), respectively. Following incubation for 60 minutes at room temperature, slides were washed three times with PBS, and chromosomes were counterstained with DAPI (1 μg/ml). Fluorescence of lacR-GFP was preserved well by this protocol.
Microscopy: All images appearing in the Figures were collected using a DeltaVision microscope system (Applied Precision Inc. Issaquah, Wash.) with either a 63×/NA 1.4 or a 100×/NA 1.35 oil immersion objective. For fixed specimens (except for the images of FIG. 2), three-dimensional data sets were collected to visualize EBV vectors and DMs as they distributed in multiple focal planes. Optical sections were collected at 0.2-μm focal intervals; pixel size was 0.111 μm for 63× objective and 0.0669 μm for 100× objective. Out-of-focus contamination was removed from each optical section via deconvolution processing and two-dimensional images were created by projecting the three-dimensional data stacks using the software supplied with the DeltaVision system.
The ability to readily visualize DMs without using FISH protocol has enabled the investigation of the mechanisms that contribute to their behavior during mitosis. The possibility that DMs are held away from the spindle poles by the microtubule-mediated antipolar force, to which normal chromosome arms are also known to be subjected (Fuller, 1995; Rieder et al., 1986) was examined. DM-labelled cells were treated with either a microtubule stabilizer (taxol) or destabilizer (vinblastine). DMs and microtubules were visualized by lacR-GFP and immunofluorescence staining, respectively.

Row | Compound | appearance of microtubules (immunofluorescence) | chromosome organization | association of DMs with chromosomes | peripheral localization of DMs on mitotic chromosomes
1 | CC[C@]1(O)C[C@@H]2CN(CCc3c([nH]c4ccccc34)[C@@](C(=O)OC)(c3cc4c(cc3OC)N(C)[C@H]3[C@@](O)(C(=O)OC)[C@H](OC(C)=O)[C@]5(CC)C=CCN6CC[C@]43[C@@H]65)C2)C1 [vinblastine] | rod-like microtubules | completely disrupted | still associated closely with chromosomes | no longer attached to the periphery of clustered chromosomes
2 | CC(=O)O[C@H]1C(=O)[C@@]2(C)[C@H]([C@H](OC(=O)c3ccccc3)[C@]3(O)C[C@H](OC(=O)[C@H](O)[C@@H](NC(=O)c4ccccc4)c4ccccc4)C(C)=C1C3(C)C)[C@]1(OC(C)=O)CO[C@@H]1C[C@@H]2O [taxol, paclitaxel] | multiple aster-like structures | completely disrupted | still associated closely with chromosomes | no longer attached to the periphery of clustered chromosomes
